What was measured:
A204 xenografts = A204 xenografts in nude mice; type: in vivo
Protocol: All mouse experiments were performed at the animal core facility at MSKCC under an approved protocol following the IACUC guidelines. Five to seven-week-old NOD/SCID IL2R gamma null (NSG) mice (bred at the Mouse Genetics Core Facility, MSKCC) were used for in vivo experiments. All mouse experiments were done following the IACUC guidelines at the animal facility at MSKCC. Tumors were induced using 10^6 A673 cells or A204 cells in 0.2ml 1:1 cellular medium, Matrigel matrix (BD Bioscience, Bedford, MA) and injected subcutaneously (s.q) into the right flank. The tumors were measured every 3 d with a caliper, and the diameters were recorded. Tumor volume was calculated by the formula a^2 b/2 where ‘a’ is the smallest and ‘b’ is the largest diameter. When the tumors reached 100mm^3, we randomized mice into control and drug treatment groups. Treatment groups received BO-1055 by tail vein injection at 10mg/kg, 20mg/kg and 30mg/kg q2d x 5 doses for mice bearing A673 xenografts. BO-1055 was given at 30mg/kg q2d x 5 doses for mice bearing A204 xenografts. De-identified patient tumor tissues were obtained in accordance with and approval from the MSKCC Institutional Review Board (IRB). Appropriate written consent and assent were obtained from the patients prior to sample collection. […]

[1] = system: A673, H526 and U20S cells; experiment: Immunoblot analyses of DNA damage repair proteins; type: cell-based, human; conditions: 2μM, 6h and 24h
Protocol: Protein concentrations were determined using the BCA kit (Pierce Biotechnology, Rockford, IL) according to the manufacturer's instructions. Protein lysates (20-100 μg) were electrophoretically resolved by SDS/PAGE, transferred to nitrocellulose membrane, and probed with the indicated primary antibodies: Phospho-ATM (Ser1981) (D6H9) from rabbit (1:500, 5883, Cell Signaling, Danvers, MA), Phospho-BRCA1 (Ser1524) from rabbit (1:500, 9009, Cell Signaling), DNA-PK from rabbit (1:500, 4602, Cell Signaling), Mre11 (31H4) from rabbit (1:500, 4847, Cell Signaling) and Rad50 from rabbit (1:500, 3427, Cell Signaling). Membranes were then incubated with a 1:5,000 dilution of a peroxidase conjugated corresponding secondary antibody. Equal loading of the protein samples was confirmed by parallel western blots for β-actin (1:5,000, ab822750; Abcam). Detection was performed using the ECL-Enhanced Chemiluminescence Detection System (GE Healthcare Biosciences, Pittsburgh, PA) according to the manufacturer's instructions. Blots were visualized by autoradiography.

[2] = system: patient derived Ewing sarcoma xenografts; experiment: Combination in vivo study in Ewing sarcoma PDX; design: species or system NSG mice
CCRF-CEM/Taxol cells = system: CCRF-CEM/Taxol cells; design: method as in PMID 21106377; conditions: CCRF-CEM/Taxol ref 6; cited from earlier work
Human MSC = experiment: Comet assay; type: cell-based; conditions: 3h
Protocol: We used comet assay, which includes single cell gel electrophoresis to assess DNA breaks when exposed to radiation or DNA damaging agents. […] Olive moment (micrometers), a product of tail DNA% and the distance between the centroids of head and tail, is an accurate parameter of DNA damage. […] Gamma-H2AX (γH2AX) phosphorylation is the initial step in DNA damage response following double stranded breaks and is responsible for recruiting DNA repair proteins.
Comet assay was performed according to the protocol described earlier. Cells were treated with BO-1055 at 2μM concentration for 3h, or immediately after exposure to 8Gy radiation after which they were isolated and mixed with 1% low melting point agarose in a tube. The cells in agarose were transferred to slides coated with normal melting point agarose. The agarose-immobilized cells were lysed in alkaline solution and the agarose trapped DNA was electrophoresed. DNA was stained with ethidium bromide and image acquisition was done immediately. DNA damage quantification was performed using OpenComet v1.3, an open-source software plugin in Image J 1.47v software (NIH, USA) for automated analysis. Olive moment, which is the product of tail DNA% and the distance between the intensity-weighted centroids of head and tail was taken from the output for analysis.

With `CN(C)CCNC(=O)c1cccc(NC(=O)Nc2ccc(N(CCCl)CCCl)cc2)c1` [BO-1055] the body weight (A204 xenografts; 30mg/kg q2d x 5) was “no significant decrease in body weight”, the tumor response (A204 xenografts; 30mg/kg q2d x 5, tail vein) was “Complete regression of tumors” and the pATM ([1]; A673, H526 and U20S) was “activation of pATM”. The pBRCA1 ([1]; U20S) was “upregulation of pBRCA1”, the Rad50 ([1]; sensitive lines (A673, H526)) was “Upregulation of Rad50” and the “tumor regression in combination group compared to single drug groups” value ([2]; BO-1055 IV plus Irinotecan IP, 10mg/kg/dose qd x 5 or 5mg/kg/dose qd x 5, day 14) was “significantly greater”. The “weight loss in combination group compared to single drug groups” value ([2]; BO-1055 plus Irinotecan) was “No significant weight loss”, the “resistance of CCRF-CEM/Taxol cells” value (CCRF-CEM/Taxol cells) was 9.4 fold and the “olive moment relative to radiation (XRT, 8Gy)” value (Human MSC) was “relatively less”.

From article PMC5190008, “BO-1055, a novel DNA cross-linking agent with remarkable low myelotoxicity shows potent activity in sarcoma models” (Oncotarget, 2016)
